Experimental data from PMC5479551, “Development of a range of fluorescent reagentless biosensors for ATP, based on malonyl-coenzyme A synthetase” (PLoS ONE, 2017).

Assays:
Parent (Rho-MatB) = molecular target: T1, Parent (Rho-MatB) (Rhodopseudomonas palustris, UniProt Q6ND88, C106A/K488A/Q457C/R286C); assay: Fluorescence titration (excitation 553 nm, emission 571 nm) of 0.5 µM fully purified Rho-MatB with ADP in 50 mM Hepes pH 7.0, 100 mM NaCl, 10 mM MgCl2, 0.3 mg/ml BSA, 20°C, quadratic binding fit.
T1 construct: N-terminal His6-tag, expressed in E. coli; two tetramethylrhodamines (5-IATR) on introduced cysteines
Excerpt: (§1) Data from titrations to measure nucleotide binding were corrected for dilution and analyzed with a quadratic binding curve using Grafit software: F=Fmin+(Fmax−Fmin)×(Kd+L+P−(Kd+L+P)^2−4×P×L)/2×P where P and L are the total concentrations of protein and ligand, respectively, Kd is the dissociation constant, and Fmin and Fmax are the fluorescence intensities of the free and ligand- bound protein, respectively.
(§2) Fig 2 Nucleotide affinity for variants of Rho-MatB. Titration of ATP (circles) and ADP (triangles) to (A) 0.5 µM Rho-MatB T167A, (B) 0.5 μM Rho-MatB T303A; (C) 0.5 μM Rho-MatB S170A. Measurements are shown for one representative experiment and were in 50 mM Hepes pH 7.0, 100 mM NaCl, 10 mM MgCl2, 0.3 mg ml^-1 bovine serum albumin at 20°C. Excitation was at 553 nm, emission at 571 nm. The dissociation constants and fluorescence ratios were obtained using a quadratic binding equation (see Methods) and are listed in Table 2. The drop lines are to indicate the dissociation constants. Data are normalized to the intensity in the absence of nucleotide.
(§3) The affinity for ATP and ADP was determined by measuring the fluorescence at different concentrations of the nucleotide (Fig 2A and 2B). Both variants show similar fluorescent changes with ATP compared to the parent Rho-MatB, but the dissociation constants (Kd) are much higher (Table 2). In contrast, the affinity of ADP was much less affected by the mutations, remaining very weak (Table 2). The change in ATP affinity presumably reflects the importance of hydrogen-bonding interactions with the triphosphate, decreased by mutating to alanine.

S170A Rho-MatB = molecular target: T2, S170A Rho-MatB (Rhodopseudomonas palustris, UniProt Q6ND88, C106A/K488A/Q457C/R286C/S170A); assay: as above
T2 construct: His6-tag, Rho-MatB background, two tetramethylrhodamines (5-IATR)
Excerpt: as §1, §2, §3

T167A Rho-MatB = molecular target: T3, T167A Rho-MatB (Rhodopseudomonas palustris, UniProt Q6ND88, C106A/K488A/Q457C/R286C/T167A); assay: as above
T3 construct: His6-tag, Rho-MatB background, two tetramethylrhodamines (5-IATR)
Excerpt: as §1, §2, §3

T303A Rho-MatB = molecular target: T4, T303A Rho-MatB (Rhodopseudomonas palustris, UniProt Q6ND88, C106A/K488A/Q457C/R286C/T303A); assay: as above
T4 construct: His6-tag, Rho-MatB background, two tetramethylrhodamines (5-IATR)
Excerpt: as §1, §2, §3

pyruvate kinase = molecular target: T5, pyruvate kinase (Oryctolagus cuniculus, UniProt P11974); assay: Steady-state pyruvate kinase assay using T303A variant ATP biosensor; format: biochemical, rabbit; settings: 50 mM HEPES pH 7.2, 100 mM KCl, 10 mM MgCl2, 25°C; 500 μM phosphoenolpyruvate; 1 μM T303A rho-MatB as ATP sensor; read-out: Km for ADP
T5 construct: pyruvate kinase (rabbit muscle from Sigma); purchased Sigma; host or cells: rabbit muscle (tissue-derived)
Description: Steady-state activity measurements of pyruvate kinase (rabbit muscle from Sigma) were obtained using fluorescence on a CLARIOstar microplate reader (BMG Labtech). Assays were set up in 100 μl or 40 μl using 96-well using 384-well polystyrene microplates (low-protein-binding, Corning, USA) respectively.
We show one type of steady-state assay using a weak-binding variant, namely T303A, and a well understood enzyme system. This variant was used to measure the Km for ADP with pyruvate kinase (Fig 7). This measurement would not have been possible with the original reagent, as it requires measurements with hundreds of micromolar ADP. The assay measured formation of ATP as a function of time and made use of calibrations of the fluorescence signal at 0 and 500 μM ADP.
Fig 7 Test assay, measurement of the Km of ADP with pyruvate kinase using T303A variant ATP biosensor. The assay was run in multiwell format in 50 mM HEPES buffer pH 7.2, 100 mM KCl, 10 mM MgCl2, 0.3 mg ml^-1 bovine serum albumin at 25°C. The assay components were 500 μM phosphoenolpyruvate, 0.005 unit ml^-1 pyruvate kinase, 1 μM T303A rho-MatB and the micromolar concentrations of ADP shown on the inset panel for an illustrative set of traces. The data are shown as ATP production rates, using calibrations done at 0–20 μM ATP at 0 μM ADP and with ADP to make 500 μM total nucleotide concentration. […]

T3 sequence (Q6ND88 entry or part of it C106A/T167A/R286C/Q457C/K488A): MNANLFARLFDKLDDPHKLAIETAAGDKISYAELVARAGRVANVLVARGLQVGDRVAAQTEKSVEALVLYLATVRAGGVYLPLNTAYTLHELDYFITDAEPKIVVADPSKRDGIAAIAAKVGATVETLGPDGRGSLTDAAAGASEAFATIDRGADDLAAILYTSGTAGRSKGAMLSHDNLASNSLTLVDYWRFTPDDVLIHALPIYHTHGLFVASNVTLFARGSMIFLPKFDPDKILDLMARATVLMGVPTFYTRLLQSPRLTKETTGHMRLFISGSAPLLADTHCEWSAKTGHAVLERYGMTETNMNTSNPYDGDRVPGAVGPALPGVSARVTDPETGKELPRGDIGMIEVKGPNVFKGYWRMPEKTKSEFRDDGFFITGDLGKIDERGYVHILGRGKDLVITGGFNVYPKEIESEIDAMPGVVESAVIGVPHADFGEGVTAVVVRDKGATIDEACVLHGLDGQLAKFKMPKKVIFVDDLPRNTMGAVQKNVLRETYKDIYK
T1 sequence (Q6ND88 entry or part of it C106A/R286C/Q457C/K488A): as the sequence (Q6ND88 entry or part of it C106A/T167A/R286C/Q457C/K488A) above, with A167T counted along it
T2 sequence (Q6ND88 entry or part of it C106A/S170A/R286C/Q457C/K488A): as the sequence (Q6ND88 entry or part of it C106A/T167A/R286C/Q457C/K488A) above, with A167T, S170A counted along it
T4 sequence (Q6ND88 entry or part of it C106A/R286C/T303A/Q457C/K488A): as the sequence (Q6ND88 entry or part of it C106A/T167A/R286C/Q457C/K488A) above, with A167T, T303A counted along it
T5 sequence (P11974 whole entry): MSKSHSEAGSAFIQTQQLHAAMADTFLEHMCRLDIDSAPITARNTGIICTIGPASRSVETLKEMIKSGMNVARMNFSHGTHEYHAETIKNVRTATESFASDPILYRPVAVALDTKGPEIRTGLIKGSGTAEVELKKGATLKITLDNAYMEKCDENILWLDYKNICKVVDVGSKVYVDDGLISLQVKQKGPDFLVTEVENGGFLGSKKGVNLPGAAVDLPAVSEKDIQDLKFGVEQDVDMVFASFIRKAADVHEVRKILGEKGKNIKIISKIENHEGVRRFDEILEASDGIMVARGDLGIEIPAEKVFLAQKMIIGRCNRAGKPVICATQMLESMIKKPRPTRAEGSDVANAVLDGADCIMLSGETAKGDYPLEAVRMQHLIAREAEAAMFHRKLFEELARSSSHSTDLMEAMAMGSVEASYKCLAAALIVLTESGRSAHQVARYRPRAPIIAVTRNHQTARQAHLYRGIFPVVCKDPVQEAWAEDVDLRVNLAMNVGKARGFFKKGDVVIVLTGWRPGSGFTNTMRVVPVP

Row | SMILES | Kd (Parent (Rho-MatB)) [µM] | Kd (S170A Rho-MatB) [µM] | Kd (T167A Rho-MatB) [µM] | Kd (T303A Rho-MatB) [mM] | Km (pyruvate kinase) [µM]
1 | Nc1ncnc2c1ncn2[C@@H]1O[C@H](COP(=O)(O)OP(=O)(O)O)[C@@H](O)[C@H]1O [ADP, adenosine 5'-diphosphate] | 428 ± 50 | 887 ± 25 | 900 ± 28 | 1.84 ± 0.114 | 
2 | Nc1ncnc2c1ncn2[C@@H]1O[C@H](COP(=O)(O)OP(=O)(O)O)[C@@H](O)[C@H]1O [ADP] |  |  |  |  | 56 ± 4
